By pEC50 is commonly meant the EC50 on a negative log10 scale, so that one unit is a factor of ten.

Data on 21 molecules can be found in BindingDB's records for doi:10.1021/acs.jmedchem.9b02176 (Glaxosmithkline, 2020).

A short description of assay [1]: Inhibition of NS5A in HCV genotype 1a infected in […] cells assessed as reduction in viral replication incubated for 48 hrs by luciferase reporter gene assay. (In general: In a reporter assay the amount or activity of a reporter protein is the signal.)
A short description of assay [2]: Inhibition of NS5A in HCV genotype 1b infected in […] cells assessed as reduction in viral replication incubated for 48 hrs by luciferase reporter gene assay.
The nature of assay [3]: Inhibition of NS5A in patient-derived HCV genotype 2a infected in […] cells assessed as reduction in viral replication incubated for 48 hrs by luciferase reporter gene assay.
Assay [4] in a line: Inhibition of NS5A in patient-derived HCV genotype 3a infected in […] cells assessed as reduction in viral replication incubated for 48 hrs by luciferase reporter gene assay.
A short description of assay [5]: Inhibition of NS5A in HCV genotype 2a con infected in […] cells assessed as reduction in viral replication incubated for 48 hrs by luciferase reporter gene assay.
Assay [6] in a line: Inhibition of NS5A in HCV genotype 3a con infected in […] cells assessed as reduction in viral replication incubated for 48 hrs by luciferase reporter gene assay.

SMILES strings stand for the structures. pEC50: −log10 of the molar value.

For the molecule `COC(=O)N[C@H](C(=O)N1[C@H](c2ncc(-c3ccc4c(c3)CCc3cc(-c5cnc([C@@H]6C[C@@H]7CCC[C@@H]7N6C(=O)[C@@H](NC(=O)OC)[C@@H](C)OC)[nH]5)ccc3-4)[nH]2)C[C@@H]2CCC[C@@H]21)[C@@H](C)OC`, the pEC50 is 10.77 in assay [1] and 10.82 in assay [2].

Take `COC(=O)N[C@H](C(=O)N1[C@H](c2ncc(-c3ccc4c5ccc(-c6cnc([C@@H]7C[C@@H]8CCC[C@@H]8N7C(=O)[C@@H](NC(=O)OC)[C@@H](C)OC)[nH]6)cc5n(C)c4c3)[nH]2)C[C@@H]2CCC[C@@H]21)[C@@H](C)OC`: the pEC50 in assay [1] was 9.83; in assay [2] it was 10.55.

On to `COC(=O)N[C@H](C(=O)N1[C@H](c2ncc(-c3ccc4c(c3)-c3ccc(-c5cnc([C@@H]6C[C@@H]7CCC[C@@H]7N6C(=O)[C@@H](NC(=O)OC)[C@@H](C)O)[nH]5)cc3-4)[nH]2)C[C@@H]2CCC[C@@H]21)[C@@H](C)O`, for which the pEC50 was 8.97 in assay [3]; 11.30 in assay [4]; 9.85 in assay [5]; 10.96 in assay [1]; 10.74 in assay [6].

In the case of `COC(=O)N[C@H](C(=O)N1[C@H](c2ncc(-c3ccc4c(c3)-c3ccc(-c5cnc([C@@H]6C[C@@H]7CCC[C@@H]7N6C(=O)[C@@H](NC(=O)OC)C(C)C)[nH]5)cc3-4)[nH]2)C[C@@H]2CCC[C@@H]21)C(C)C`, the pEC50 in assay [5] is 8.34; in assay [1], 11.00.

For `COC(=O)N[C@H](C(=O)N1CCC[C@H]1c1nc(-c2ccc(-c3ccc(-c4c[nH]c([C@@H]5CCCN5C(=O)[C@@H](NC(=O)OC)C(C)C)n4)cc3)cc2)c[nH]1)C(C)C` [BMS-790052], the pEC50 in assay [3] was 7.31; in assay [4], 9.94; in assay [5], 7.28; in assay [1], 10.49; in assay [2], 11.10; in assay [6], 9.39.

Take `COC(=O)N[C@@H](CO)C(=O)N1[C@H](c2ncc(-c3ccc4c(c3)-c3ccc(-c5cnc([C@@H]6C[C@@H]7CCC[C@@H]7N6C(=O)[C@@H](NC(=O)OC)C(C)C)[nH]5)cc3-4)[nH]2)C[C@@H]2CCC[C@@H]21`: the pEC50 was 8.36 in assay [5] and 10.70 in assay [1].

Take `COC(=O)N[C@H](C(=O)N1[C@H](c2ncc(-c3ccc4c(c3)Cc3cc(-c5cnc([C@@H]6C[C@@H]7CCC[C@@H]7N6C(=O)[C@@H](NC(=O)OC)[C@@H](C)OC)[nH]5)ccc3-4)[nH]2)C[C@@H]2CCC[C@@H]21)[C@@H](C)OC`: the figures for the pEC50 in assay [1] and in assay [2] were 10.39 and 10.66, respectively.

On to `COC(=O)N[C@H](C(=O)N1[C@H](c2ncc(-c3ccc4c(c3)-c3ccc(-c5cnc([C@@H]6C[C@@H]7CCC[C@@H]7N6C(=O)[C@@H](NC(=O)OC)[C@@H](C)O)[nH]5)cc3-4)[nH]2)C[C@@H]2CCC[C@@H]21)C(C)C`, for which the pEC50 in assay [5] is 9.01; in assay [1], 10.89; in assay [2] it was 11.22.

For `CN(C)[C@@H](C(=O)N1CCC[C@H]1c1ncc(-c2ccc3c(c2)-c2ccc(-c4cnc([C@@H]5CCCN5C(=O)[C@@H](c5ccccc5)N(C)C)[nH]4)cc2-3)[nH]1)c1ccccc1`, the pEC50 in assay [5] was 9.49; in assay [1], 9.61; in assay [2] it was 10.09.

As to `COC(=O)N[C@H](C(=O)N1[C@H](c2ncc(-c3ccc4c(c3)-c3ccc(-c5cnc([C@@H]6C[C@@H]7CCC[C@@H]7N6C(=O)[C@@H](NC(=O)OC)[C@@H](C)OC)[nH]5)cc3-4)[nH]2)C[C@@H]2CCC[C@@H]21)[C@@H](C)O`, the pEC50 in assay [3] is 8.99; in assay [4], 11.22; in assay [5], 9.73; in assay [1], 10.85; in assay [2], 11.10.

In the case of `COC(=O)N[C@H](C(=O)N1[C@H](c2ncc(-c3ccc4c(c3)Oc3ccc(-c5cnc([C@@H]6C[C@@H]7CCC[C@@H]7N6C(=O)[C@@H](NC(=O)OC)[C@@H](C)OC)[nH]5)cc3O4)[nH]2)C[C@@H]2CCC[C@@H]21)[C@@H](C)OC`, the values for the pEC50 in assay [1] and in assay [2] were 10.92 and 11.15, respectively.

For `COC(=O)N[C@H](C(=O)N1[C@H](c2ncc(-c3ccc4c(c3)-c3ccc(-c5cnc([C@@H]6C[C@@H]7CCC[C@@H]7N6C(=O)[C@@H](NC(=O)OC)[C@@H](C)OC)[nH]5)cc3-4)[nH]2)C[C@@H]2CCC[C@@H]21)[C@@H](C)OC`, the pEC50 in assay [3] was 9.18; in assay [4] it was 11.52; in assay [5], 9.94; in assay [1], 11.00; in assay [2], 11.10; in assay [6], 10.70.

Take `COC(=O)N[C@H](C(=O)N1[C@H](c2ncc(-c3ccc4c(c3)C(F)(F)c3cc(-c5cnc([C@@H]6C[C@@H]7CCC[C@@H]7N6C(=O)[C@@H](NC(=O)OC)[C@@H](C)OC)[nH]5)ccc3-4)[nH]2)C[C@@H]2CCC[C@@H]21)[C@@H](C)OC`: the pEC50 in assay [1] is 10.54; in assay [2] it was 10.77.

In the case of `COC(=O)N[C@H](C(=O)N1[C@H](c2ncc(-c3ccc4c(c3)-c3ccc(-c5cnc([C@@H]6C[C@@H]7CCC[C@@H]7N6C(=O)[C@@H](NC(=O)OC)[C@H](C)O)[nH]5)cc3-4)[nH]2)C[C@@H]2CCC[C@@H]21)[C@H](C)O`, the pEC50 in assay [5] was 7.45; in assay [1] it was 9.52; in assay [2], 11.00.

With `COC(=O)N[C@H](C(=O)N1CCC[C@H]1c1ncc(-c2ccc3c(c2)-c2ccc(-c4cnc([C@@H]5C[C@@H]6CCCC[C@@H]6N5C(=O)[C@@H](NC(=O)OC)C(C)C)[nH]4)cc2-3)[nH]1)C(C)C`, the values for the pEC50 in assay [5] and in assay [1] were 7.91 and 11.05, respectively.

For the molecule `COC(=O)N[C@H](C(=O)N1CCC[C@H]1c1ncc(-c2ccc3c(c2)-c2ccc(-c4cnc([C@@H]5CCCN5C(=O)[C@@H](c5ccccc5)N(C)C)[nH]4)cc2-3)[nH]1)C(C)C`, the pEC50 in assay [5] is 8.83; in assay [1], 10.28; in assay [2] it was 10.85.

With `COC(=O)N[C@H](C(=O)N1[C@H](c2ncc(-c3ccc4c(c3)-c3ccc(-c5cnc([C@@H]6C[C@@H]7CCCC[C@@H]7N6C(=O)[C@@H](NC(=O)OC)C(C)C)[nH]5)cc3-4)[nH]2)C[C@@H]2CCCC[C@@H]21)C(C)C`, the pEC50 in assay [5] is 8.48; in assay [1], 10.70.

Regarding `COC(=O)N[C@@H](CO)C(=O)N1[C@H](c2ncc(-c3ccc4c(c3)-c3ccc(-c5cnc([C@@H]6C[C@@H]7CCC[C@@H]7N6C(=O)[C@H](CO)NC(=O)OC)[nH]5)cc3-4)[nH]2)C[C@@H]2CCC[C@@H]21`, the pEC50 in assay [5] is 8.05; in assay [1], 10.26; in assay [2] it was 11.05.

For `COC(=O)N[C@H](C(=O)N1[C@H](c2ncc(-c3ccc4c(c3)S(=O)(=O)c3cc(-c5cnc([C@@H]6C[C@@H]7CCC[C@@H]7N6C(=O)[C@@H](NC(=O)OC)[C@@H](C)OC)[nH]5)ccc3-4)[nH]2)C[C@@H]2CCC[C@@H]21)[C@@H](C)OC`, the results for the pEC50 in assay [1] and in assay [2] were 10.09 and 10.55, respectively.

Take `COC(=O)N[C@H](C(=O)N1[C@H](c2ncc(-c3ccc4c(c3)Cc3ccc(-c5cnc([C@@H]6C[C@@H]7CCC[C@@H]7N6C(=O)[C@@H](NC(=O)OC)[C@@H](C)OC)[nH]5)cc3C4)[nH]2)C[C@@H]2CCC[C@@H]21)[C@@H](C)OC`: the pEC50 in assay [1] is 10.52; in assay [2], 10.70.

On to `COC(=O)N[C@H](C(=O)N1CCC[C@H]1c1ncc(-c2ccc3c(c2)-c2ccc(-c4cnc([C@@H]5CCCN5C(=O)[C@@H](NC(=O)OC)C(C)C)[nH]4)cc2-3)[nH]1)C(C)C`, for which the pEC50 in assay [3] is 7.31; in assay [4] it was 10.74; in assay [5], 7.49; in assay [1], 10.36; in assay [2], 11.10; in assay [6], more than 10.60.
